We go through 19 compounds from patent publication US9115092B2, “Substituted quinazoline and pyrido-pyrimidine derivatives” (Asana Biosciences, LLC, priority 2010, dated 2015).

In test [1] the target is T1, mTOR kinase (Homo sapiens, UniProt P42345).
T1 construct: purchased Millipore, USA
Description: mTOR kinase TR-FRET assay. It counts as biochemical. The following applies: read-out: mTO R. The procedure, abridged:
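Compounds preincubated 60 min with mTOR (5 ng) in HEPES pH 7.5, EGTA, MnCl2; ULight-p70 S6K Thr389 peptide (50 nM) and ATP (20 μM) then added, 60 min at room temperature. EDTA-stopped, Eu-anti-phospho antibody detection by TR-FRET (665/615 nm); IC50 from variable-slope sigmoidal fit.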
A general note: Time-resolved FRET reads energy transfer from a long-lived donor to a nearby acceptor.

Test [2] concerns pS6RP(S235/236), PC3 cells. Kind of test: In-cell Western assay, pS6RP(S235/236) in PC3 cells. The class given is cell-based, human. How it is done: Cells from human prostate cancer cell line PC3 (American Type Culture Collection (ATCC), Manassas, Va. 20108 USA) were seeded at an optimal density of 22,000 cell/well in 96-well plates containing Ham's F12K medium (90 μL) and incubated overnight. The compound dilutions were carried out in 100% DMSO followed by a dilution in the medium. Test compounds were added in serial dilutions to the wells and incubated for 2 h. The cells were washed and fixed with 4% paraformaldehyde. After incubation at room temperature for 1 h in the dark, blocking was done for 2 h at room temperature. Primary antibodies for phosphorylated (p) AKT(5473) (phosphorylated at serine 473), pAKT(T308) (phosphorylated at threonine 308) and for pS6RP(S235/236) (phosphorylated at serine 235/236) (commercially available from Cell Signaling Technology®, whose protocol was followed for the in-cell western assay, were diluted to the required concentration and added to the corresponding wells followed by overnight incubation at 4° C. Eu-labeled rabbit (PE) (Perkin-Elmer USA catalog #AD0106) secondary antibody was added and incubated for 2 h at room temperature. Delfia® enhancement solution (cat #1244-105, Perkin Elmer USA) was subsequently added to the plate before taking the reading at 615 nm with excitation wavelength of 340 nm, after which 0.5 μg/mL of Hoechst® 33258 dye (Catalog #86140-5, Sigma) was added to the plate and fluorescence emission was read at 460 nm with 355 nm excitation, to evaluate the correction factor. IC50 values were calculated using a sigmoidal dose-response curve fit in GraphPad Prism® v5 software.

The target of test [3] is T2, PI3Kα (wild-type), P110/P85α (Homo sapiens, UniProt P42336).
T2 construct: made in house; host or cells: SF9 insect cells
Description: PI3 Kinase TR-FRET assay, PI3Kα (wild-type). It counts as biochemical. Summed up:
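Sf9-expressed His-purified P110/P85α (5 ng) preincubated 60 min RT with compound and PIP2 in buffer with 40 mM MgCl2, 5 mM DTT; reaction started with ATP (PIP2 and ATP both 10 μM), 30 min RT. PIP3 detected by TR-FRET displacement, 665/615 nm ratio; IC50 from dose-response curves.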

Test [4] concerns PC3 cells. Description: XTT assay for cell viability, PC3 cells. It counts as cell-based, human. Particulars: Homo sapiens, PC-3, cell viability. The procedure, abridged:
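PC3 cells seeded at 1000 cells/well, grown 24 h, then exposed to serial dilutions of compound for 96 h. Viability read by XTT dye at 37° C, absorbance 465 nm. EC50 from sigmoidal dose-response fit.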
A general note: Tetrazolium dyes change colour on reduction, which living cells bring about.

T2 sequence (P42336 whole entry): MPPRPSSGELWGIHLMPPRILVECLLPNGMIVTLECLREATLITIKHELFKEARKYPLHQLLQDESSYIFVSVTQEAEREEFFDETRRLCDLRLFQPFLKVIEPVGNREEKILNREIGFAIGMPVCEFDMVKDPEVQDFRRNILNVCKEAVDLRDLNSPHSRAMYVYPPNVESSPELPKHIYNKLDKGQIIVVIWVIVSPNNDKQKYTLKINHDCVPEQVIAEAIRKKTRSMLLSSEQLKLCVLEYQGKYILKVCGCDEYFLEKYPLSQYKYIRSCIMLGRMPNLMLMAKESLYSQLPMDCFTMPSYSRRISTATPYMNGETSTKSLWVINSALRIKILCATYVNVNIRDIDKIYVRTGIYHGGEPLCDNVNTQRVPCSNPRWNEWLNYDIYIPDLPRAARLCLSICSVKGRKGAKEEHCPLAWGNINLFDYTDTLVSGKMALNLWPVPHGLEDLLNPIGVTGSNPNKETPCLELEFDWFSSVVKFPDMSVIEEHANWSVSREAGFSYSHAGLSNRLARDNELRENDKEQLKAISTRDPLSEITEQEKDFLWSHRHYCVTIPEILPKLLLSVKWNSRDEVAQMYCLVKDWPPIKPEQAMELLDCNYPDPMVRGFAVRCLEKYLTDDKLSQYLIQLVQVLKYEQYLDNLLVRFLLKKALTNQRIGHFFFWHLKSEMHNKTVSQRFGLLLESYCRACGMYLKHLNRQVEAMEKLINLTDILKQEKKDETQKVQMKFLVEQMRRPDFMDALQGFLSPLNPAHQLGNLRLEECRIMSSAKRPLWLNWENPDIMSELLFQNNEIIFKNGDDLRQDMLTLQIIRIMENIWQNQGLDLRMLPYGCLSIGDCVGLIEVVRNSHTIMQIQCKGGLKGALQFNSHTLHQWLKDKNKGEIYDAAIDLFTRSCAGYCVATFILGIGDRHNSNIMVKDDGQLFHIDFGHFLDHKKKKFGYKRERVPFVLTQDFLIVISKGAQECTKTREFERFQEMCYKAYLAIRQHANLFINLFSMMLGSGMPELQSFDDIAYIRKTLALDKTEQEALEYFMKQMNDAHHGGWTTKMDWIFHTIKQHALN
T2 sequence (P27986 whole entry partner): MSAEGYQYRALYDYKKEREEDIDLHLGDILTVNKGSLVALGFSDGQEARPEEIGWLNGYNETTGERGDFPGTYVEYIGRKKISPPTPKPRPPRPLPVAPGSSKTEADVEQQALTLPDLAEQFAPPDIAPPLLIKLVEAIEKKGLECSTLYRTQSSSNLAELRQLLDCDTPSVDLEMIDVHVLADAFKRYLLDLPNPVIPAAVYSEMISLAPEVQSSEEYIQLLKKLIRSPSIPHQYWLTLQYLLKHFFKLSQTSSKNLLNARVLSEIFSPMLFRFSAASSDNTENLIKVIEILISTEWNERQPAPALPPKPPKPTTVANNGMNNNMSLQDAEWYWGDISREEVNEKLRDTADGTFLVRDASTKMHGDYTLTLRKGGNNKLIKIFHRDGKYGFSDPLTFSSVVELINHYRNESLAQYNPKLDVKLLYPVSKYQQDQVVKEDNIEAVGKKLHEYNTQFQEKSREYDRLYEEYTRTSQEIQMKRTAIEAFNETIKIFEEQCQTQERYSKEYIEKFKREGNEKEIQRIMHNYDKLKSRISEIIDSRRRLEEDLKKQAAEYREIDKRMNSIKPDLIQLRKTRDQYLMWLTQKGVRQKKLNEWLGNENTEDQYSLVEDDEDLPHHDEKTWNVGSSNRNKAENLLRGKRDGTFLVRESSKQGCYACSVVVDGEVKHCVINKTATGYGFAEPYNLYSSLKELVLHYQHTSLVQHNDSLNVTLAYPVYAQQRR

In the case of `CN(C)C1CCN(C(=O)c2ccc(NC(=O)Nc3ccc(-c4nc(N5CCOCC5)c5ncc(-c6cnn(C)c6)cc5n4)cc3)cc2)C1` (stereo in doubt) [Example 185, (S)-1-(4-(3-(dimethylamino)pyrrolidine-1-carbonyl)phenyl)-3-(4-(7-(1-methyl-1H-pyrazol-4-yl)-4-morpholino-pyrido[3,2-d]pyrimidin-2-yl)phenyl)urea], the IC50 in test [1] was under 50 nM; in test [2] (In-cell Western), 201 to 10000 nM; in test [3], under 50 nM.

For the compound `CN(C)C1CCN(C(=O)c2ccc(NC(=O)Nc3ccc(-c4nc(N5CCOCC5)c5ccc(-c6cncnc6)cc5n4)cc3)cc2)C1` (stereo in doubt) [Example 188, (S)-1-(4-(3-(dimethylamino)pyrrolidine-1-carbonyl)phenyl)-3-(4-(4-morpholino-7-(pyrimidin-5-yl)quinazolin-2-yl)phenyl)urea], the IC50 in test [1] is under 50 nM; in test [2] (In-cell Western), 201 to 10000 nM; in test [3] it was under 50 nM.

Consider `CN(C)C1CCN(C(=O)c2ccc(NC(=O)Nc3ccc(-c4nc(N5CCOCC5)c5ncc(-c6cnn(C)c6)cc5n4)cc3F)cc2)C1` (stereo in doubt) [Example 210, (S)-1-(4-(3-(dimethylamino)pyrrolidine-1-carbonyl)phenyl)-3-(2-fluoro-4-(7-(1-methyl-1H-pyrazol-4-yl)-4-morpholino-pyrido[3,2-d]pyrimidin-2-yl)phenyl)urea], for which the IC50 in test [1] was under 50 nM; in test [2] (In-cell Western) it was 201 to 10000 nM; in test [3], under 50 nM.

As for `Cc1ccc(-c2ccc3c(N4CCOCC4)nc(-c4ccc(NC(=O)Nc5ccc(C(=O)N6CC[C@@H](N(C)C)C6)cc5)cc4)nc3c2)o1` [Example 196, (R)-1-(4-(3-(dimethylamino)pyrrolidine-1-carbonyl)phenyl)-3-(4-(7-(5-methylfuran-2-yl)-4-morpholino-quinazolin-2-yl)phenyl)urea], the IC50 in test [1] is under 50 nM; in test [2] (Homo sapiens, PC-3, In-cell Western), under 100 nM; in test [3], 50 to 200 nM.

Take `CN(C)C(=O)c1ccc(NC(=O)Nc2ccc(-c3nc(N4CCOCC4)c4ccc(-c5cnc(N(C)C)nc5)cc4n3)cc2)cc1` [Example 226, 4-(3-(4-(7-(2-(dimethylamino)pyrimidin-5-yl)-4-morpholino-quinazolin-2-yl)phenyl)ureido)-N,N-dimethyl-benzamide]: the IC50 in test [1] is under 50 nM; in test [4] it was 201 to 10000 nM; in test [3] it was under 50 nM.

Consider `CNC(=O)c1ccc(NC(=O)Nc2ccc(-c3nc(N4CCOCC4)c4ccc(-c5ccco5)cc4n3)cc2)cc1` [Example 233, 4-(3-(4-(7-(furan-2-yl)-4-morpholine-quinazolin-2-yl)phenyl)ureido)-N-methyl-benzamide], for which the IC50 in test [1] is 50 to 200 nM; in test [4], under 100 nM; in test [3], under 50 nM.

On to `CN(C)C(=O)c1ccc(NC(=O)Nc2ccc(-c3nc(N4CCOCC4)c4ccc(-c5cncnc5)cc4n3)cc2)cc1F` [Example 240, 2-fluoro-N,N-dimethyl-4-(3-(4-(4-morpholino-7-(pyrimidin-5-yl)quinazolin-2-yl)phenyl)ureido)-benzamide], for which the IC50 is under 50 nM in test [1], 201 to 10000 nM in test [4] and under 50 nM in test [3].

`CN(C)C(=O)c1ccc(NC(=O)Nc2ccc(-c3nc(N4CCOCC4)c4ccc(-c5cccc(S(C)(=O)=O)c5)cc4n3)c(F)c2)cc1` [Example 245, 4-(3-(3-fluoro-4-(7-(3-(methylsulfonyl)phenyl)-4-morpholino-quinazolin-2-yl)phenyl)ureido)-N,N-dimethyl-benzamide]: the IC50 is 50 to 200 nM in test [1], 201 to 10000 nM in test [4] and under 50 nM in test [3].

With `CN(C)C(=O)c1ccc(NC(=O)Nc2ccc(-c3nc(N4CCOCC4)c4ncc(-c5cncnc5)cc4n3)c(F)c2)cc1` [Example 250, 4-(3-(3-fluoro-4-(4-morpholino-7-(pyrimidin-5-yl)pyrido[3,2-d]pyrimidin-2-yl)phenyl)ureido)-N,N-dimethyl-benzamide], the IC50 in test [1] is under 50 nM; in test [4] it was 201 to 10000 nM; in test [3] it was under 50 nM.

Take `CN(C)C(=O)c1ccc(NC(=O)Nc2ccc(-c3nc(N4CCOCC4)c4ccc(-c5cccnc5F)cc4n3)cc2)cc1F` [Example 255, 2-fluoro-4-(3-(4-(7-(2-fluoropyridin-3-yl)-4-morpholino-quinazolin-2-yl)phenyl)ureido)-N,N-dimethyl-benzamide]: the IC50 in test [1] is under 50 nM; in test [4], 201 to 10000 nM; in test [3], 50 to 200 nM.

Regarding `CN(C)C(=O)c1ccc(NC(=O)Nc2ccc(-c3nc(N4CCOCC4)c4cc(F)c(-c5cncnc5)cc4n3)c(F)c2)cc1` [Example 256, 4-(3-(3-fluoro-4-(6-fluoro-4-morpholino-7-(pyrimidin-5-yl)quinazolin-2-yl)phenyl)ureido)-N,N-dimethyl-benzamide], the IC50 in test [1] was in the range of 50 to 200 nM; in test [4], 201 to 10000 nM; in test [3], 50 to 200 nM.

`COc1ncc(-c2ccc3c(N4CCOCC4)nc(-c4ccc(NC(=O)Nc5ccc(C(=O)N(C)C)c(F)c5)cc4)nc3c2)cn1` [Example 257, 2-fluoro-4-(3-(4-(7-(2-methoxypyrimidin-5-yl)-4-morpholino-quinazolin-2-yl)phenyl)ureido)-N,N-dimethyl-benzamide]: the figures for the IC50 in test [1], in test [4] and in test [3] were under 50 nM, 201 to 10000 nM and under 50 nM, respectively.

Take `COc1ccc(-c2ccc3c(N4CCOCC4)nc(-c4ccc(NC(=O)Nc5ccc(C(=O)N(C)C)c(F)c5)cc4)nc3c2)cn1` [Example 259, 2-fluoro-4-(3-(4-(7-(6-methoxypyridin-3-yl)-4-morpholino-quinazolin-2-yl)phenyl)ureido)-N,N-dimethyl-benzamide]: the IC50 in test [1] was under 50 nM; in test [4] it was 201 to 10000 nM; in test [3], 50 to 200 nM.

In the case of `CN(C)C(=O)c1ccc(NC(=O)Nc2ccc(-c3nc(N4CCOCC4)c4ccc(-c5cccnc5)cc4n3)cc2)cc1F` [Example 260, 2-fluoro-N,N-dimethyl-4-(3-(4-(4-morpholino-7-(pyridin-3-yl)quinazolin-2-yl)phenyl)ureido)-benzamide], the figures for the IC50 in test [1], in test [4] and in test [3] were under 50 nM, 201 to 10000 nM and under 50 nM, respectively.

`CN(C)C(=O)c1ccc(NC(=O)Nc2ccc(-c3nc(N4CCOCC4)c4ccc(-c5ccco5)cc4n3)cc2)cc1F` [Example 265, 2-fluoro-4-(3-(4-(7-(furan-2-yl)-4-morpholino-quinazolin-2-yl)phenyl)ureido)-N,N-dimethyl-benzamide]: the IC50 in test [1] was 50 to 200 nM; in test [4], under 100 nM; in test [3] it was 50 to 200 nM.

With `CN(C)C(=O)c1ccc(NC(=O)Nc2ccc(-c3nc(N4CCOCC4)c4ccc(-c5ccc(CO)o5)cc4n3)c(F)c2)cc1` [Example 274, 4-(3-(3-fluoro-4-(7-(5-(hydroxymethyl)furan-2-yl)-4-morpholino-quinazolin-2-yl)phenyl)ureido)-N,N-dimethyl-benzamide], the IC50 is 50 to 200 nM in test [1], 201 to 10000 nM in test [4] and under 50 nM in test [3].

Consider `CC(O)c1ccc(-c2ccc3c(N4CCOCC4)nc(-c4ccc(NC(=O)Nc5ccc(C(=O)N(C)C)cc5)cc4F)nc3c2)o1` (stereo not drawn) [Example 275, 4-(3-(3-fluoro-4-(7-(5-(1-hydroxyethyl)furan-2-yl)-4-morpholino-quinazolin-2-yl)phenyl)ureido)-N,N-dimethyl-benzamide], for which the IC50 in test [1] was under 50 nM; in test [4], 201 to 10000 nM; in test [3] it was 50 to 200 nM.

For `CN(C)C(=O)c1ccc(NC(=O)Nc2ccc(-c3nc(N4CCOCC4)c4ccc(-c5cncnc5)cc4n3)c(F)c2F)cc1` [Example 280, 4-(3-(2,3-difluoro-4-(4-morpholino-7-(pyrimidin-5-yl)quinazolin-2-yl)phenyl)ureido)-N,N-dimethyl-benzamide], the IC50 in test [1] is under 50 nM; in test [4], under 100 nM; in test [3], 50 to 200 nM.

As for `CN(C)C(=O)c1ccc(NC(=O)Nc2ccc(-c3nc(N4CCOCC4)c4ccc(-c5ccco5)cc4n3)c(F)c2F)cc1` [Example 282, -(3-(2,3-difluoro-4-(7-(furan-2-yl)-4-morpholino-quinazolin-2-yl)phenyl)ureido)-N,N-dimethyl-benzamide], the IC50 in test [1] was 201 to 10000 nM; in test [4], under 100 nM; in test [3] it was 50 to 200 nM.
